Results taken from patent publication US20100129290A1, “SMART CONTRAST AGENT AND DETECTION METHOD FOR DETECTING TRANSITION METAL IONS” (I.S.T. corporation, priority 2008, published 2010).
Where no end group is shown, it is not given here. The star is where a group is joined. dabcyl = dabcyl quencher on the Lys side chain, CN(C)c1ccc(/N=N/c2ccc(C(=O)*)cc2)cc1; K(FAM) = lysine with FAM attached to its side chain

Tests used:
[1] = 1H longitudinal relaxivity (NMRD); type: physicochemical; conditions: salt only, 50 mM NEM, pH=7.0, 20 MHz
Protocol: Smart contrast agents with larger relaxivity values imply lower MRI detection limits for the target species and are advantageous over contrast agents with lower relaxivity values.
The incubation was conducted in the dark, at room temperature, and lasted for 3 hours. The longitudinal relaxivity was measured at field strengths between 0.01 MHz to 20 MHz. […] The underlining mechanisms responsible for the observed behavior have not been well characterized to date, but likely contain contributions from several factors including gadolinium-copper ion exchange, alterations in peptide solubility, peptide structural rearrangements, remaining synthesis impurities, and buffer interactions with both copper and gadolinium ions.

Aβ accumulation = conditions: transgenic mice; cited from earlier work
[2] = system: endogenous β-amyloid peptides; conditions: cerebrospinal fluid; read-out: EC50 for conversion of endogenous β-amyloid peptides into insoluble aggregates; cited from earlier work
[3] = Fluorescence (FRET) titration with calcium(II) ions; type: binding
[4] = Fluorescence (FRET) titration with zinc(II) ions; type: binding; conditions: for effect of the mutation on zinc binding: mutant versus P1P
[5] = Fluorescence (FRET) titration with copper(II) ions; type: binding; conditions: for effect of the mutation on copper binding: mutant versus P1P
[6] = Fluorescence (FRET) titration with magnesium(II) ions; type: binding
[7] = Fluorescence (FRET) titration with gadolinium(III) ions; type: binding; conditions: for Gd^+3 binding, effect on FRET activity: 10 μM peptide, pH dependence

Row | Compound | binding with Ca^+2 [3] | effect of the mutation on zinc binding [4] | effect of the mutation on copper binding [5] | binding with Mg^+2 [6] | Gd^+3 binding, effect on FRET activity [7] | other results
1 | O=S(=O)([O-])[O-].[Cu+2] [CuSO4] | – | – | – | – | – | relaxivity [1]: 0.4 mM⁻¹ s⁻¹
2 | [Cl][Gd]([Cl])[Cl] [GdCl3] | – | – | – | – | – | relaxivity [1]: 5.1 mM⁻¹ s⁻¹
3 | Oc1c(I)cc(Cl)c2cccnc12 [clioquinol] | – | – | – | – | – | inhibition of Aβ accumulation (Aβ accumulation): significant inhibition of Aβ accumulation
4 | [Zn+2] [zinc ions] | – | – | – | – | – | EC50 [2]: 120 to 140 µM
5 | K(FAM)PAGGGWGQK(dabcyl) ({K(FAM)}-PAGGGWGQK(dabcyl)) [P17, mutant version of P1P, histidine to alanine] | No binding | most critical | most critical | No binding | marked increase in Gd^+3 binding with increasing pH | –
6 | K(FAM)PHGGGAGQK(dabcyl) ({K(FAM)}-PHGGGAGQK(dabcyl)) [P16, mutant version of P1P, tryptophan to alanine] | No binding | significant effect | significant effect | No binding | marked increase in Gd^+3 binding with increasing pH | –
7 | K(FAM)PHGGGWGAK(dabcyl) ({K(FAM)}-PHGGGWGAK(dabcyl)) [P18, mutant version of P1P, glutamine to alanine] | No binding | either had no effect, or even increased the peptide binding strength | either had no effect, or even increased the peptide binding strength | No binding | marked increase in Gd^+3 binding with increasing pH | effect of the mutation on binding affinity for zinc ([4]; pH ≦7): little effect; effect of the mutation on binding activity with zinc ([4]; pH=7.6): increase the binding activity; effect of the mutation on binding affinity for copper ([5]; pH ≦7): little effect; effect of the mutation on binding activity with copper ([5]; pH=7.6): increase the binding activity; effect of the mutation on affinity of Gd^+3 ions ([7]; versus base P1P peptide): reduce the affinity
